The nature of data set [1]: Oral bioavailability and brain penetration in mice. The format is in vivo. Particulars: 30 μmol/kg p.o., ± SD. As for the experimental part: […] Male mice (30-35g, OF1/ICstrain) were sacrificed at indicated time points after oral administration. Trunk-blood was collected in EDTA-containing tubes and the brain was removed and immediately frozen on dry ice. To 100 μl plasma 10 μl internal standard (1.0 pmol of a compound with solubility and ionization properties similar to test compounds) was added and extracted three times with 500 μl dichloromethane. The combined extracts were then dried under a stream of nitrogen and re-dissolved in 100 μl acetonitrile/water (70% acetonitrile). Brains were weighed and homogenized in water (1:5 w/v). Two 100 μl aliquots of each homogenate+10 μl of internal standard (same standard as used for the plasma samples) were extracted three times with 500 μl dichloromethane and further processed as the plasma samples. Samples were separated on Beckmann high-performance liquid chromatography equipment system with an autosampler (Gilson 233XL).
The limit of detection (LOD), defined as the lowest concentration of the extracted standard sample with a signal to noise ratio of ˜3.

In data set [2] the test system is parkinsonian primates. Briefly: Movement disorder model: antidyskinetic effect in parkinsonian (MPTP) primates. The format is in vivo, cynomolgus monkeys (Macaca fascicularis). Particulars: for locomotor response / mean parkinsonian score: parkinsonian primates; for mean parkinsonian score: reduced from 9.4. The protocol: Female ovariectomized cynomolgus monkeys (Macaca fascicularis) are used in the assessment. The animals can be rendered parkinsonian by continuous infusion of 1-methyl-4-phenyl-1,2,3,6-tetrahydropyridine (MPTP) until they develop a stable parkinsonian syndrome. After recuperation, animals are treated daily with levodopa until clear and reproducible dyskinesias are developed.
Monkeys are observed through a one-way screen window in their home cage. They are observed and scored repeatedly at baseline and after a standard s.c. dose of levodopa. Locomotor activity is assessed and followed with an electronic monitoring system. Antiparkinsonian responses are evaluated by measuring the locomotor activity and a Parkinson disability scale (see Hadj Tahar A et al, Clin Neuropharmacol 2000; 23:195-202; and Samadi P et al, Neuropharmacology 2003; 45:954-963). Dyskinesias are closely monitored and scored according to a dyskinesia rating scale (also described in Hadj Tahar A et al; and Samadi P et al) every 15 minutes until the end of the effect. The doses of levodopa are chosen to induce motor activation and reproducible dyskinesia but no excessive agitation.
Monkeys are observed for at least two hours following an oral administration of vehicle. On a subsequent day, the dose of levodopa selected is tested once. The animals are observed (with measures of parkinsonian and dyskinetic scores) for the entire duration of the levodopa effect and are also monitored for locomotor activity. This provides vehicle control values as well as levodopa antiparkinsonian and dyskinesia response data for comparison with combinations of a α7-nAChR agonist/positive allosteric modulator and levodopa. The monkeys are then tested with a α7-nAChR agonist/positive allosteric modulator in combination with a fixed dose of levodopa. A suspension for oral administration of the α7-nAChR agonist/positive allosteric modulator is administered before levodopa. After each dose, the animals are observed (with measures of parkinsonian and dyskinetic scores) for the entire duration of effect and monitored for locomotor activity or any change in behavior (e.g. circling, excitement, lethargy and sleepiness).
Using this protocol, compound A-1 at a dose of 20 mg/kg was tested. Results based on five monkeys (levodopa/benserazide doses: 22.5/50 mg; 65/50 mg; 30/50 mg; 35/50 mg; and 25/50 mg) are shown in FIGS. 1-4.
For experiments shown in FIGS. 5 and 6 parkinsonian primates were treated orally with 10 mg/kg MPEP, 20 mg/kg JN403 and a combination of MPEP (10 mg/kg) and JN403 (20 mg/kg). In said experiments, compound MPEP increased the locomotor response from 230 count over 4 h to 810.

In the next data set the test system is mice. Briefly: Social Recognition Test in mice. The format is in vivo, mouse. As to conditions: oral, dose 3 mg/kg, familiar partner at 24 h vs time 0. As for the experimental part: Social interactions between two experimental animals are influenced by their degree of familiarity: the better they know each other, the less time they spend on mutual scrutiny at each meeting. […] Memory enhancing agents (i.e. oxiracetam) facilitate learning to the extent that the previously met (familiar) partner is still remembered after 24 h, whereas in vehicle treated control animals the memory usually fades after less than 1 hour (Thor and Holloway, 1982) or after 2-3 hours.
Baseline-test: Pairs consisting of one adult and one young mouse were assigned at random to the experimental and control groups. In each pair only the adult mouse was orally treated 1 hour before the trial with either vehicle or the test compound. The duration of active contacts of the adult mouse with the young mouse was manually recorded over a period of 3 min, including the following behavioural, approach-related items: sniffing, nosing, grooming, licking, pawing and playing, anogenital exploration and orientation toward the young mouse; orientation, thereby, was defined as tip of nose of the adult mouse less than approximately 1 cm distant from the young mouse's body. […]

In data set [3] the test system is parkinsonian primates. Particulars: data published in WO2009047296 and Gregoire et al 2011; cited from earlier work.
[4] abbreviates: compound A-1 20 mg/kg oral with levodopa/benserazide, five monkeys.

The text below walks through data of patent publication US20140228398A1, “COMBINATIONS OF ALPHA 7 NICOTINIC ACETYLCHOLINE RECEPTOR ACTIVATORS AND mGluR5 ANTAGONISTS FOR USE IN DOPAMINE INDUCED [sequence] IN PARKINSON'S DISEASE” (NOVARTIS AG, priority 2011, published 2014).

`c1cc2cc(-c3cnc(O[C@H]4CCN5CCC[C@@H]4C5)nc3)ccc2[nH]1` [C-1, (4S,5R)-4-[5-(1H-indol-5-yl)-pyrimidin-2-yloxy]-1-aza-bicyclo[3.3.1]nonane]: the Brain in data set [1] (0.25 hour) is 620 ± 221 pmol/g; in data set [1] (0.5 hour), 1405 ± 539 pmol/g; in data set [1] (1 hour) it was 1458 ± 189 pmol/g; in data set [1] (2 hour) it was 1478 ± 259 pmol/g; in data set [1] (4 hour), 842 ± 187 pmol/g; in data set [1] (8 hour), 362 ± 62 pmol/g.
Consider `C[C@H](OC(=O)N[C@@H]1CN2CCC1CC2)c1ccccc1F` [A-1, (S)-(1-aza-bicyclo[2.2.2]oct-3-yl)-carbamic acid (S)-1-(2-fluoro-phenyl)-ethyl ester], for which the Brain in data set [1] (0.5 hour) was determined as 706.3 ± 153.4 pmol/g; in data set [1] (1 hour), 573.7 ± 109.3 pmol/g; in data set [1] (2 hour), 191.9 ± 34.9 pmol/g; in data set [1] (4 hour) it was 104.6 ± 39.6 pmol/g; in data set [1] (6 hour) it was 40.5 ± 12.1 pmol/g; in data set [1] (24 hour), 9.1 ± 2.7 pmol/g. Also, the Plasma in data set [1] (0.5 hour) was found to be 634.9 ± 261.3 pmol/mL; in data set [1] (1 hour) it was 684.7 ± 339.6 pmol/mL; in data set [1] (2 hour) it was 168.2 ± 91.3 pmol/mL; in data set [1] (4 hour), 85.0 ± 54.3 pmol/mL; in data set [1] (6 hour) it was 29.5 ± 13.8 pmol/mL; in data set [1] (24 hour), 3.8 ± 0.6 pmol/mL. The “antiparkinsonian activity of levodopa (antiparkinsonian score)” value in the data set with parkinsonian primates [2] (setting [4]) is reported as “does not lower the antiparkinsonian activity of levodopa”. The “onset of action of levodopa (Elapsed Time after Levodopa Administration)” value with parkinsonian primates [2] (setting [4]) is “does not delay the onset of action of levodopa”. Besides, the “Duration of Levodopa-Response” value in the data set on parkinsonian primates [2] (compound A-1 20 mg/kg oral with levodopa/benserazide, five monkeys, extended from 230 minutes) is 265 min. Also, the “Mean Dyskinesia Score (total period)” value with parkinsonian primates [2] (compound A-1 20 mg/kg oral with levodopa/benserazide, five monkeys, reduced from 2.8) was determined as 2.1. Besides, in the data set on parkinsonian primates [2] (oral 20 mg/kg JN403, baseline 230 count over 4 h), the locomotor response entry is given as “no effect”. In the data set on parkinsonian primates [2] (oral 20 mg/kg JN403), the mean parkinsonian score is listed as 9.0. The “Reduction in time scrutinizing in % ± SEM at 24 h” value with mice worked out at 52 ± 4%.
`Cc1cc(/C(=C/Nc2ccc(Cl)cc2)C(=O)Nc2ccc(Cl)cc2)on1` [E-1, (Z)—N-(4-Chloro-phenyl)-3-(4-chloro-phenylamino)-2-(3-methyl-isoxazol-5-yl)-acrylamide]: the L-dopa induced dyskinesias entry with parkinsonian primates [3] is “able to reduce L-dopa induced dyskinesias”.
In the case of `Cc1cccc(C#Cc2ccccc2)n1` [F-2, 2-Methyl-6-phenylethynyl-pyridine, reference compound], the locomotor response in the data set with parkinsonian primates [2] (oral 10 mg/kg MPEP, increased from 230) turned out to be 810 count over 4 h. Further, the mean parkinsonian score with parkinsonian primates [2] (oral 10 mg/kg MPEP) is on record as 8.2.
Take `C[C@H]1[C@H](Oc2ccc(-c3ccc4[nH]ccc4c3)nn2)C2CCN1CC2` [B-13, (2S,3R)-3-[6-(1H-indol-5-yl)-pyridazin-3-yloxy]-2-methyl-1-aza-bicyclo[2.2.2]octane]: the Brain in data set [1] (0.25 hour) came to 1884 ± 291 pmol/g; in data set [1] (0.5 hour) it was 2960 ± 706 pmol/g; in data set [1] (1 hour), 2940 ± 335 pmol/g; in data set [1] (2 hour), 1260 ± 172 pmol/g; in data set [1] (4 hour), 379 ± 134 pmol/g; in data set [1] (8 hour) it was 93 ± 30 pmol/g. Further, the Brain in data set [1] (24 hour) was found to be 13 ± 4 pmol/g.
